One experiment addresses S. aureus DHFR (Staphylococcus aureus, UniProt P0A017). The experiment is classed as biochemical. Conditions: read-out: Ki, nM (SEM) S. aureus 29213; pH 7.0, 30 °C.
For another experiment, the system named is S. aureus 29213. The experiment is classed as cell-based, Staphylococcus aureus.
The target of a further experiment is B. anthracis DHFR (Bacillus anthracis, UniProt Q81R22). In kind it is biochemical. Conditions: read-out: Ki, nM (SEM) B. anthracis Sterne; pH 7.0, 30 °C.
Sequence of B. anthracis DHFR (Q81R22 1-162): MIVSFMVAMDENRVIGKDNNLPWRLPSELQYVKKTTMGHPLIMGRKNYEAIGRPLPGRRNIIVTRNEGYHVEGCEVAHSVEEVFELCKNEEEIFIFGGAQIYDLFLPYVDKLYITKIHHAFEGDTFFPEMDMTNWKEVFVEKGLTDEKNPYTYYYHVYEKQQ
The subject of another experiment is B. anthracis Sterne. The experiment is classed as cell-based, Bacillus anthracis.

Values after ≈ are worked out from the molar mass of the structure shown.

Sequence of S. aureus DHFR (P0A017 whole entry): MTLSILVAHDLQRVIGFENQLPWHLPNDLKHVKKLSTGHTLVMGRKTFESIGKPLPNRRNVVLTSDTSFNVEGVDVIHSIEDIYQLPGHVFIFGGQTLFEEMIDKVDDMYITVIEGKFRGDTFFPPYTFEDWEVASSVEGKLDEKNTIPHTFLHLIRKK

One may read the Ki as the dissociation constant of the complex between target and ligand, obtained from inhibition or displacement. For the molecule `COc1cc(Cc2c(C)nc(N)nc2N)cc(/C=C/C(=O)N2N=Cc3ccccc3C2C=C(C)C)c1OC` (racemic) [Compound 12a, (±)-(E)-3-{5-[(2,4-Diamino-6-methyl-5-pyrimidinyl)methyl]-2,3-dimethoxyphenyl}-1-(1-isobutenyl-2(1H)-phthalazinyl)-2-propen-1-one], the results for the Ki on S. aureus DHFR and at B. anthracis DHFR were 3.4 nM and 14.3 nM, respectively. Besides, the “MIC, μg/mL S. aureus 29213” value in the experiment with S. aureus 29213 fell in the range of 0.25 to 0.5 µg/mL. In addition, the “MIC, μg/mL B. anthracis Sterne” value in the experiment on B. anthracis Sterne worked out at 4 µg/mL (≈ 7.8 µM).

Take `CCc1nc(N)nc(N)c1Cc1cc(/C=C/C(=O)N2N=Cc3ccccc3C2C=C(C)C)c(OC)c(OC)c1` (racemic) [Compound 12b, (±)-(E)-3-{5-[(2,4-Diamino-6-ethyl-5-pyrimidinyl)methyl]-2,3-dimethoxyphenyl}-1-(1-isobutenyl-2(1H)-phthalazinyl)-2-propen-1-one]: the inhibition constant Ki came out at 2.9 nM on S. aureus DHFR and 25.4 nM at B. anthracis DHFR. The “MIC, μg/mL S. aureus 29213” value in the experiment with S. aureus 29213 lay within 0.25 to 0.5 µg/mL. Also, in the experiment with B. anthracis Sterne, the “MIC, μg/mL B. anthracis Sterne” value turned out to be 4 µg/mL (≈ 7.6 µM).

As to `CCCC1c2ccccc2C=NN1C(=O)/C=C/c1cc(Cc2c(N)nc(N)nc2CC)cc(OC)c1OC` (racemic) [Compound 11b, (±)-(E)-3-5-[(2,4-Diamino-6-ethyl-5-pyrimidinyl)methyl]-2,3-dimethoxyphenyl}-1-(1-propyl-2(1H)-phthalazinyl)-2-propen-1-one], on S. aureus DHFR, the Ki worked out at 3.6 nM. Also, the “MIC, μg/mL S. aureus 29213” value in the experiment with S. aureus 29213 was 0.5 to 2 µg/mL. In addition, the “MIC, μg/mL B. anthracis Sterne” value against B. anthracis Sterne worked out at 4 µg/mL (≈ 7.77 µM).

Regarding `CCCc1nc(N)nc(N)c1Cc1cc(/C=C/C(=O)N2N=Cc3ccccc3C2C=C(C)C)c(OC)c(OC)c1` (racemic) [Compound 12c, (±)-(E)-3-{5-[(2,4-Diamino-6-propyl-5-pyrimidinyl)methyl]-2,3-dimethoxyphenyl}-1-(1-isobutenyl-2(1H)-phthalazinyl)-2-propen-1-one], at S. aureus DHFR, the Ki was 4.1 nM. In the experiment with S. aureus 29213, the “MIC, μg/mL S. aureus 29213” value is 2 µg/mL (≈ 3.7 µM). Besides, the “MIC, μg/mL B. anthracis Sterne” value in the experiment with B. anthracis Sterne came out at 2 µg/mL (≈ 3.7 µM).

On to `CCCC1c2ccccc2C=NN1C(=O)/C=C/c1cc(Cc2c(C)nc(N)nc2N)cc(OC)c1OC` (racemic) [Compound 11a, (±)-(E)-3-{5-[(2,4-Diamino-6-methyl-5-pyrimidinyl)methyl]-2,3-dimethoxyphenyl}-1-(1-propyl-2(1H)-phthalazinyl)-2-propen-1-one], for which the Ki came out at 4.5 nM on S. aureus DHFR and 72.4 nM on B. anthracis DHFR. Besides, in the experiment on S. aureus 29213, the “MIC, μg/mL S. aureus 29213” value turned out to be 0.5 µg/mL (≈ 0.999 µM). Moreover, the “MIC, μg/mL B. anthracis Sterne” value against B. anthracis Sterne amounted to 8 µg/mL (≈ 16 µM).

For the molecule `CCCc1nc(N)nc(N)c1Cc1cc(/C=C/C(=O)N2N=Cc3ccccc3C2CCC)c(OC)c(OC)c1` (racemic) [Compound 11c, (±)-(E)-3-5-[(2,4-Diamino-6-propyl-5-pyrimidinyl)methyl]-2,3-dimethoxyphenyl}-1-(1-propyl-2(1H)-phthalazinyl)-2-propen-1-one], the Ki at S. aureus DHFR stood at 4 nM. Besides, in the experiment on S. aureus 29213, the “MIC, μg/mL S. aureus 29213” value fell in the range of 1 to 2 µg/mL. Further, in the experiment with B. anthracis Sterne, the “MIC, μg/mL B. anthracis Sterne” value was 1 µg/mL (≈ 1.89 µM).

Source of the values: PMC3570588 (ChemMedChem, 2012).
